This passage reports IC50 results from patent publication US20250276983A1, “COMPOUNDS AND METHODS FOR MODULATING HER2” (IAMBIC THERAPEUTICS, INC., priority 2022, published 2025).

What all share (type): cell-based
Assay [1] deals with BaF3_HER2YVMA cells. As to the kind of experiment: Cell growth inhibition assay, BaF3_HER2YVMA. The conditions noted are these: 72 h, BaF3_HER2YVMA cells, 3 days treatment, CellTiterGlo 2.0; read-out: HER2-YVMA IC50 (nM), cell growth inhibition.
Assay [2] relates to BaF3_HER2WT cells. As to the kind of experiment: Cell growth inhibition assay, BaF3_HER2WT. The conditions noted are these: 72 h, 3 days treatment, CellTiterGlo 2.0, read-out: HER2 WT IC50 (nM), cell growth inhibition.
Assay [3] deals with BaF3_EGFRWT cells. Description: Cell growth inhibition assay, BaF3_EGFRWT. The conditions noted are these: 72 h, 80 ng/mL recombinant human EGF, 3 days treatment, CellTiterGlo 2.0, read-out: EGFR WT IC50 (nM), cell growth inhibition. A general note: In ATP-based viability assays light output follows the ATP content of the culture.

As usually defined, the IC50 is the concentration that inhibits the measured activity by half.

Where only a bound is given, the exact number is not on record here.

As to `COC1CCN(C/C=C/C(=O)N2CC(c3ccn4ncnc(Nc5ccc(Oc6ccn7ncnc7c6)c(C)c5)c34)C2)CC1` [Example 42, (E)-1-(3-(4-((4-([1,2,4]triazolo[1,5-a]pyridin-7-yloxy)-3-methylphenyl)amino)pyrrolo[2,1-f][1,2,4]triazin-5-yl)azetidin-1-yl)-4-(4-methoxypiperidin-1-yl)but-2-en-1-one], the IC50 in assay [1] was less than 200 nM; in assay [2], less than 200 nM; in assay [3] it was 1500 to 5000 nM.

As for `Cc1cc(Nc2ncnn3ccc(C4CN(C(=O)/C=C/CC(C)C)C4)c23)ccc1Oc1ccn2ncnc2c1` [Example 43, (E)-1-(3-(4-((4-([1,2,4]triazolo[1,5-a]pyridin-7-yloxy)-3-methylphenyl)amino)pyrrolo[2,1-f][1,2,4]triazin-5-yl)azetidin-1-yl)-5-methylhex-2-en-1-one], the IC50 is 200 to 500 nM in assay [1], less than 200 nM in assay [2] and 1500 to 5000 nM in assay [3].

`C=CC(=O)N1CC2CCC(C1)N2c1ccn2ncnc(Nc3ccc(Oc4ccn5ncnc5c4)c(C)c3)c12` [Example 44, 1-(8-(4-((4-([1,2,4]triazolo[1,5-a]pyridin-7-yloxy)-3-methylphenyl)amino)pyrrolo[2,1-f][1,2,4]triazin-5-yl)-3,8-diazabicyclo[3.2.1]octan-3-yl)prop-2-en-1-one]: the IC50 in assay [1] was less than 200 nM; in assay [2] it was less than 200 nM; in assay [3] it was 1500 to 5000 nM.

Take `Cc1cc(Nc2ncnn3ccc(N4C5CCC4CN(C(=O)/C=C/CN(C)C)C5)c23)ccc1Oc1ccn2ncnc2c1` [Example 45, (E)-1-(8-(4-((4-([1,2,4]triazolo[1,5-a]pyridin-7-yloxy)-3-methylphenyl)amino)pyrrolo[2,1-f][1,2,4]triazin-5-yl)-3,8-diazabicyclo[3.2.1]octan-3-yl)-4-(dimethylamino)but-2-en-1-one]: the IC50 is less than 200 nM in assay [1], less than 200 nM in assay [2] and 1500 to 5000 nM in assay [3].

Regarding `C=CC(=O)N1C2CCC1CN(c1ccn3ncnc(Nc4ccc(Oc5ccn6ncnc6c5)c(C)c4)c13)C2` [Example 46, 1-(3-(4-((4-([1,2,4]triazolo[1,5-a]pyridin-7-yloxy)-3-methylphenyl)amino)pyrrolo[2,1-f][1,2,4]triazin-5-yl)-3,8-diazabicyclo[3.2.1]octan-8-yl)prop-2-en-1-one], the IC50 is less than 200 nM in assay [1], less than 200 nM in assay [2] and 200 to 500 nM in assay [3].

`Cc1cc(Nc2ncnn3ccc(N4CC5CCC(C4)N5C(=O)/C=C/CN(C)C)c23)ccc1Oc1ccn2ncnc2c1` [Example 47, (E)-1-(3-(4-((4-([1,2,4]triazolo[1,5-a]pyridin-7-yloxy)-3-methylphenyl)amino)pyrrolo[2,1-f][1,2,4]triazin-5-yl)-3,8-diazabicyclo[3.2.1]octan-8-yl)-4-(dimethylamino)but-2-en-1-one]: the IC50 is less than 200 nM in assay [1], less than 200 nM in assay [2] and 1500 to 5000 nM in assay [3].

Turning to `C=C(CN(C)C)C(=O)N1C2CCC1CN(c1ccn3ncnc(Nc4ccc(Oc5ccn6ncnc6c5)c(C)c4)c13)C2` [Example 48, 1-(3-(4-((4-([1,2,4]triazolo[1,5-a]pyridin-7-yloxy)-3-methylphenyl)amino)pyrrolo[2,1-f][1,2,4]triazin-5-yl)-3,8-diazabicyclo[3.2.1]octan-8-yl)-2-((dimethylamino)methyl)prop-2-en-1-one], the IC50 is 1500 to 5000 nM in assay [1], 200 to 500 nM in assay [2] and 1500 to 5000 nM in assay [3].

Turning to `C=C(CN(C)C)C(=O)N1CC2CCC(C1)N2c1ccn2ncnc(Nc3ccc(Oc4ccn5ncnc5c4)c(C)c3)c12` [Example 49, 1-(8-(4-((4-([1,2,4]triazolo[1,5-a]pyridin-7-yloxy)-3-methylphenyl)amino)pyrrolo[2,1-f][1,2,4]triazin-5-yl)-3,8-diazabicyclo[3.2.1]octan-3-yl)-2-((dimethylamino)methyl)prop-2-en-1-one acetate], the IC50 in assay [1] was less than 200 nM; in assay [2], less than 200 nM; in assay [3], 1500 to 5000 nM.

For the molecule `Cc1cc(Nc2ncnn3ccc(C4(O)CCN(C(=O)/C=C/CN(C)C)CC4)c23)ccc1Oc1ccn2ncnc2c1` [Example 50, (E)-1-(4-(4-((4-([1,2,4]triazolo[1,5-a]pyridin-7-yloxy)-3-methylphenyl)amino)pyrrolo[2,1-f][1,2,4]triazin-5-yl)-4-hydroxypiperidin-1-yl)-4-(dimethylamino)but-2-en-1-one], the figures for the IC50 in assay [1], in assay [2] and in assay [3] were 500 to 1500 nM, 200 to 500 nM and 1500 to 5000 nM, respectively.

As for `Cc1cc(Nc2ncnn3ccc(C4(O)CN(C(=O)/C=C/CN(C)C)C4)c23)ccc1Oc1ccn2ncnc2c1` [Example 51, (E)-1-(3-(4-((4-([1,2,4]triazolo[1,5-a]pyridin-7-yloxy)-3-methylphenyl)amino)pyrrolo[2,1-f][1,2,4]triazin-5-yl)-3-hydroxyazetidin-1-yl)-4-(dimethylamino)but-2-en-1-one], the 50% inhibitory concentration (IC50) in assay [1] is less than 200 nM; in assay [2] it was less than 200 nM; in assay [3] it was 1500 to 5000 nM.

Regarding `COC1(c2ccn3ncnc(Nc4ccc(Oc5ccn6ncnc6c5)c(C)c4)c23)CCN(C(=O)/C=C/CN(C)C)CC1` [Example 52, (E)-1-(4-(4-((4-([1,2,4]triazolo[1,5-a]pyridin-7-yloxy)-3-methylphenyl)amino)pyrrolo[2,1-f][1,2,4]triazin-5-yl)-4-methoxypiperidin-1-yl)-4-(dimethylamino)but-2-en-1-one], the figures for the IC50 in assay [1], in assay [2] and in assay [3] were 500 to 1500 nM, 200 to 500 nM and 1500 to 5000 nM, respectively.

Consider `Cc1cc(Nc2ncnn3ccc(C4=CCN(C(=O)/C=C/CN(C)C)CC4)c23)ccc1Oc1ccn2ncnc2c1` [Example 53, (E)-1-(4-(4-((4-([1,2,4]triazolo[1,5-a]pyridin-7-yloxy)-3-methylphenyl)amino)pyrrolo[2,1-f][1,2,4]triazin-5-yl)-3,6-dihydropyridin-1(2H)-yl)-4-(dimethylamino)but-2-en-1-one], for which the results for the IC50 in assay [1], in assay [2] and in assay [3] were less than 200 nM, less than 200 nM and 1500 to 5000 nM, respectively.

Consider `Cc1cc(Nc2ncnn3ccc(N4CCN(C(=O)/C=C/CN(C)C)CC4=O)c23)ccc1Oc1ccn2ncnc2c1` [Example 54, (E)-1-(4-((4-([1,2,4]triazolo[1,5-a]pyridin-7-yloxy)-3-methylphenyl)amino)pyrrolo[2,1-f][1,2,4]triazin-5-yl)-4-(4-(dimethylamino)but-2-enoyl)piperazin-2-one], for which the IC50 in assay [1] was 1500 to 5000 nM; in assay [2], 500 to 1500 nM; in assay [3], 1500 to 5000 nM.

For `C=CC(=O)N1CCC2CCC(C1)N2c1ccn2ncnc(Nc3ccc(Oc4ccn5ncnc5c4)c(C)c3)c12` (stereo not drawn) [Example 55, 1-(9-(4-((4-([1,2,4]triazolo[1,5-a]pyridin-7-yloxy)-3-methylphenyl)amino)pyrrolo[2,1-f][1,2,4]triazin-5-yl)-3,9-diazabicyclo[4.2.1]nonan-3-yl)prop-2-en-1-one], the IC50 in assay [1] was 500 to 1500 nM; in assay [2], less than 200 nM; in assay [3], 1500 to 5000 nM.

In the case of `Cc1cc(Nc2ncnn3ccc(C4CCN(C(=O)/C=C/CN5CCOCC5)CC4)c23)ccc1Oc1ccn2ncnc2c1` [Example 56, (E)-1-(4-(4-((4-([1,2,4]triazolo[1,5-a]pyridin-7-yloxy)-3-methylphenyl)amino)pyrrolo[2,1-f][1,2,4]triazin-5-yl)piperidin-1-yl)-4-morpholinobut-2-en-1-one], the IC50 in assay [1] is less than 200 nM; in assay [2], less than 200 nM; in assay [3], 1500 to 5000 nM.

Consider `Cc1cc(Nc2ncnn3ccc(C4CCN(C(=O)/C=C/CN5CCCCC5)CC4)c23)ccc1Oc1ccn2ncnc2c1` [Example 57, (E)-1-(4-(4-((4-([1,2,4]triazolo[1,5-a]pyridin-7-yloxy)-3-methylphenyl)amino)pyrrolo[2,1-f][1,2,4]triazin-5-yl)piperidin-1-yl)-4-(piperidin-1-yl)but-2-en-1-one], for which the IC50 in assay [1] was less than 200 nM; in assay [2] it was less than 200 nM; in assay [3], 1500 to 5000 nM.

As to `COC/C=C/C(=O)N1CCC(c2ccn3ncnc(Nc4ccc(Oc5ccn6ncnc6c5)c(C)c4)c23)CC1` [Example 58, (E)-1-(4-(4-((4-([1,2,4]triazolo[1,5-a]pyridin-7-yloxy)-3-methylphenyl)amino)pyrrolo[2,1-f][1,2,4]triazin-5-yl)piperidin-1-yl)-4-methoxybut-2-en-1-one], the IC50 is 500 to 1500 nM in assay [1], less than 200 nM in assay [2] and 1500 to 5000 nM in assay [3].

`C#CCN(C)C/C=C/C(=O)N1CCC(c2ccn3ncnc(Nc4ccc(Oc5ccn6ncnc6c5)c(C)c4)c23)CC1` [Example 59, (E)-1-(4-(4-((4-([1,2,4]triazolo[1,5-a]pyridin-7-yloxy)-3-methylphenyl)amino)pyrrolo[2,1-f][1,2,4]triazin-5-yl)piperidin-1-yl)-4-(methyl(prop-2-yn-1-yl)amino)but-2-en-1-one]: the IC50 in assay [1] is 200 to 500 nM; in assay [2], less than 200 nM; in assay [3] it was 1500 to 5000 nM.

Turning to `Cc1cc(Nc2ncnn3ccc(C4CN(C(=O)/C=C/CN5CCC(F)CC5)C4)c23)ccc1Oc1ccn2ncnc2c1` [Example 62, (E)-1-(3-(4-((4-([1,2,4]triazolo[1,5-a]pyridin-7-yloxy)-3-methylphenyl)amino)pyrrolo[2,1-f][1,2,4]triazin-5-yl)azetidin-1-yl)-4-(4-fluoropiperidin-1-yl)but-2-en-1-one], the values for the IC50 in assay [1], in assay [2] and in assay [3] were less than 200 nM, less than 200 nM and 1500 to 5000 nM, respectively.

`Cc1cc(Nc2ncnn3ccc(N4CCN(C(=O)C(F)Cl)CC(F)(F)C4)c23)ccc1Oc1ccn2ncnc2c1` (stereo not drawn) [Example 63, 1-(4-(4-((4-([1,2,4]triazolo[1,5-a]pyridin-7-yloxy)-3-methylphenyl)amino)pyrrolo[2,1-f][1,2,4]triazin-5-yl)-6,6-difluoro-1,4-diazepan-1-yl)-2-chloro-2-fluoroethan-1-one]: the IC50 in assay [1] lay in the range of 500 to 1500 nM; in assay [2], 500 to 1500 nM; in assay [3], 1500 to 5000 nM.
